In patent publication US20240390490A1, “PHARMACEUTICAL COMPOSITIONS FOR THE TREATMENT OF CANCERS” (Rutgers, The State University of New Jersey, priority 2021, published 2024):

Experiments:
[1] = tested on: MDA-MB-231, MDA-MB-468, and T47D cells; assay: Transwell cell migration assay; assay type: cell-based, human; conditions: 100 μM, 12 hours
Method: Cell migration assay was performed following the procedure described previously (26). In brief, the upper insert chambers (8-μm pore polycarbonate membrane) were seeded with cells at a density of 5×10^4 cells (cell numbers established by preliminary experiments) per well in the appropriate serum-free medium. A 10% FBS-containing media was then added to the lower chamber to serve as a chemoattractant. […] The photographs were used to count the number of migrated cells in Adobe Photoshop.

[2] = tested on: MDA-MB-231, MDA-MB-468, and T47D cells; assay: Matrigel cell invasion assay; assay type: cell-based, human; conditions: 100 μM, 48 hours, Matrigel coated membrane
Method: The invasive and metastatic potential of cell lines was tested by transmigration through an extracellular matrix (ECM) by a previously described method (26). In brief, the upper chamber of the matrix in 24-well Matrigel invasion chamber plates (BD BioCoat™ Matrigel™ Chamber, BD Biosciences, San Jose, CA) was loaded with 5×10^4 cells in 500 μl of the appropriate medium (cell numbers established by preliminary experiments). After 24 hours, medium containing 1% FBS was used on both the lower and upper surfaces. One day later, the medium of the upper chamber was replaced with 500 μl medium containing 1% FBS without any drug treatment. The medium was replaced with medium containing 10% FBS and 25 ng/ml EGF in the lower chamber. The effect of beta-adrenergic and opioidergic drugs was tested by adding a 100 μM concentration of these drugs alone or in combination or vehicle alone in both lower and upper chambers. After 48 hours of incubation, the noninvasive cells that remained within the inserts were removed with a cotton swab. Cells that traversed through the Matrigel and the polycarbonate filter (8-μm pore size) attached to the lower surface were stained with 0.5% crystal violet for calculating the invasion index. Cells were visualized and photographed as described in the migration assay. The photographs were used to count invasive cells in Adobe Photoshop.

[3] = tested on: MDA-MB-231-cell-derived xenografts; assay: Histopathology, immunohistochemistry and western blot of xenograft tumors; assay type: in vivo, rat; conditions: for level of E-cadherin in tumors / level of N-cadherin in tumors / levels of Snail, Slug, and Twist in tumors: immunoblotting; for level of CC3 in tumor tissue / levels of Bcl-xL and Bcl-2 in tumor tissue: western blot
Method: At the end of the experiment, a portion of tumor tissues was fixed in 10% neutral buffered formalin overnight and embedded in paraffin, was cut into 5-μm-thick sections, and stained with H&E according to previous publications (8). Representative areas of tumor were analyzed for the presence of tumor cells and photographs were captured under a light microscope (20× magnification) as previously described.
For protein analyses, tumor tissues from in vivo experiments, enriched NK cells from the spleen, and NK-92 MI cancer cell co-incubated samples were lysed with a buffer containing protease and phosphatase inhibitors (25 mM Tris-HCl, pH 7.4; 150 mM NaCl; 1% Nonidet P-40; 1 mM EDTA; and 5% glycerol with Pierce Halt Protease Inhibitor). Protein ([…]) from total lysate was loaded and separated on a 4-20% SDS-PAGE and transferred overnight to polyvinylidene difluoride membranes. Membranes were incubated with primary Ab for 12 hours at 4° C. in blocking buffer, 5% w/v nonfat dry milk in TBS, and 0.1% Tween 20. The following primary antibodies were purchased from Santa Cruz Biotechnology (Santa Cruz, CA): anti-perforin rabbit polyclonal (1:250), anti-granzyme B mouse monoclonal (1:200), anti-IFN-γ mouse monoclonal (1:250), anti-Snail (1:200), anti-Slug (1:200), and anti-Twist. Anti-E-cadherin (1:250), anti-N-cadherin (1:250), and anti-NKG2D goat polyclonal (1:500) were all from Abcam (Cambridge, MA). Membranes were washed and incubated with peroxidase-conjugated secondary Abs (1:5000; Vector Laboratories) for 1 hour at room temperature. Membranes were incubated with ECL western blot chemiluminescence reagent (Pierce) and exposed to x-ray film, which was developed, and densitometry was performed using Image J analysis software (National Institutes of Health). Each protein was normalized to corresponding intensities for β-actin.
(§1) Thin paraffin sections (5 μm) of tumors were stained using the ABC Elite Vectastain Kit (Vector Labs) according to the manufacturer's instructions using various primary antibodies. Details of all primary antibodies used are described above. In addition, cell proliferation-associated antigen (Ki-67; 1:200) were purchased from Abcam. After the primary antibody incubation and PBS wash, sections were incubated with peroxidase-coupled anti-rabbit Ig ImmPRESS reagent (Vector Laboratories, Inc.). Antigen localization was achieved by using the 3,3′-diaminobenzidine-peroxidase reaction, and sections were dehydrated, and cover slipped. To evaluate the immunohistochemical staining, sections were photographed using a Nikon-TE 2000 inverted microscope. Intensity of staining was categorized as negative and strongly positive (27). Brown-stained spots are immuno positive cells. Data are means±SEM obtained from 3 serial sections of 5 to 6 animals in each group.

[4] = tested on: NK cells and macrophages in tumor tissues; assay: Immunocytochemistry and flow cytometry of tumor-infiltrating immune cells; assay type: in vivo, rat
Method: as §1
Tumor-infiltrating immune cells were collected from MDA-MB-231 cell xenograft tumors to examine and compare the immune cell population among control and drug-treated animals. Briefly, single-cell suspensions of tumor tissue were achieved by mincing the tissue with a scalpel blade using a crisscross method, ground with 1-ml of ACK lysing buffer to remove red blood cells. The cell suspensions were filtered through a 70-micron sieve and then washed with PBS. Cells from the tumor were collected and dispersed with 100 μl of PBS and stained by the addition of fluorescence-conjugated antibodies. For flow cytometry experiments, single-cell suspension derived from tumors, PBMC, and splenocytes were used to characterize the immune cell population. Fluorophore-conjugated antibodies were used to detect surface markers of specific cell types and markers are as follows: for NK cells (CD161a (10/78)), tissue macrophage (RT1B (OX-6)), dendritic cells (CD103 (OX-62)), peripheral monocytes (CD11b (ED8)), B cells (CD45RA (OX-33)), and DAPI (Sigma) was used to exclude dead cells.
Immune cells from the tumor, PBMC, and splenocyte samples were examined by following the gating strategy as described below. First, side scatter area (SSC-A) versus forward scatter area (FSC-A) were used to exclude cellular debris, then forward scatter height (FSC-H) versus FSC-A were used to select single cells. Single cells were sub-gated using DAPI viability dye and a further live cell population was used to select markers. Expression of a particular cell surface marker in a specific population of cells was identified and represented as single parameter histograms. Unstained cells and compensation beads (BD Biosciences, CA) were used to set voltages and create single stain negative and positive controls. Additional negative controls (isotype control and fluorescence minus one (FMO)) were also used to determine any non-specific binding in the present study. The data collected from each sample were exported and analyzed using FlowJo™ version 10.7.

CC(C)NCC(O)COc1cccc2ccccc12 (stereo not drawn) [PRO, propranolol]
cell migration [1]: significant but moderate inhibitory effects
cell invasion [2]: decreased cell invasion
level of E-cadherin in tumors [3]: increase
level of N-cadherin in tumors [3]: decrease
levels of Snail, Slug, and Twist in tumors [3]: reduced
level of CC3 in tumor tissue [3]: increased
levels of Bcl-xL and Bcl-2 in tumor tissue [3]: decreased
percentage of CD161+ NK cells in the tumor tissues [4]: increased
percentage of CD163+ macrophages in the tumor tissues [4]: decreased

O=C1CC[C@@]2(O)[C@H]3Cc4ccc(O)c5c4[C@@]2(CCN3CC2CC2)[C@H]1O5 [NTX, 17-(cyclopropylmethyl)-4,5α-epoxy-3,14-dihydroxymorphinan-6-one]
cell migration [1]: significant but moderate inhibitory effects
cell invasion [2]: decreased cell invasion
level of CC3 in tumor tissue [3]: increased
levels of Bcl-xL and Bcl-2 in tumor tissue [3]: decreased
percentage of CD161+ NK cells in the tumor tissues [4]: increased
percentage of CD163+ macrophages in the tumor tissues [4]: decreased

CC1(C)SSC(C)(C)[C@@H](NC(=O)[C@@H](N)Cc2ccc(O)cc2)C(=O)NCC(=O)N[C@@H](Cc2ccccc2)C(=O)N[C@H]1C(=O)O [DPDPE, (D-Pen^2, D-Pen^5)-enkephalin]
cell migration [1]: significant but moderate inhibitory effects
cell invasion [2]: decreased cell invasion
level of E-cadherin in tumors [3]: increase
level of N-cadherin in tumors [3]: decrease
levels of Snail, Slug, and Twist in tumors [3]: reduced
level of CC3 in tumor tissue [3]: increased
levels of Bcl-xL and Bcl-2 in tumor tissue [3]: decreased
percentage of CD161+ NK cells in the tumor tissues [4]: increased
percentage of CD163+ macrophages in the tumor tissues [4]: decreased
